This experiment has as its target T1, Androgen Receptor (AR) (Homo sapiens, UniProt P10275, T878A).
T1 construct: cell based immuno-fluorescence assay using the LNCaP prostate epithelial cell line; endogenous in cells; host or cells: LNCaP clone FGC (ATCC CRL-1740)
T1 sequence (P10275 1-920 T878A): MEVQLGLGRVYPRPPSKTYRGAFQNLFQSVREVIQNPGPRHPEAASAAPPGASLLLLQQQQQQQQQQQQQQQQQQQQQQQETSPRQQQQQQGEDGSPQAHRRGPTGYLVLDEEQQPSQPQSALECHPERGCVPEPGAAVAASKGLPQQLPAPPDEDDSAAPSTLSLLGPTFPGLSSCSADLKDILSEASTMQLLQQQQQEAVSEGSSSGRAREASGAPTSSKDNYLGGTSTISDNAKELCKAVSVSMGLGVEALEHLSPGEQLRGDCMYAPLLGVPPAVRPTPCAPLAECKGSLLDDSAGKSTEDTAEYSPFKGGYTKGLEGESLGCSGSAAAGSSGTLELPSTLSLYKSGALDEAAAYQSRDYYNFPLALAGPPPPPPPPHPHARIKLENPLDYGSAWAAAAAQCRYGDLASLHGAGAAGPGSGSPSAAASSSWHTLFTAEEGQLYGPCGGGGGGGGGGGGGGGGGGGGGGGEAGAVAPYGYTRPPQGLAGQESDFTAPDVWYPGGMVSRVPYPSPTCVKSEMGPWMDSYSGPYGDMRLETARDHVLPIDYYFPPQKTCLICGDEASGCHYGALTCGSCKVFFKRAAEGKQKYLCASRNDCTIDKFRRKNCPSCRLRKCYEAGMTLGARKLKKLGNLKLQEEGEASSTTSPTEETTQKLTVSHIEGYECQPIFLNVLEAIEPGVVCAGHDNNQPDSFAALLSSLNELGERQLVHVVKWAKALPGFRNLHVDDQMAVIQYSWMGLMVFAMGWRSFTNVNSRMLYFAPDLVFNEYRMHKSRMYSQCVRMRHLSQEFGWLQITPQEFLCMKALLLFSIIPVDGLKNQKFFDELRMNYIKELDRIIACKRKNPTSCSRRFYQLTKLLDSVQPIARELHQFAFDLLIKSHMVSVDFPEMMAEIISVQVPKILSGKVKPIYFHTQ
The experiment can be described thus: LNCaP Androgen Receptor Down-regulation Cell Assay (immunofluorescence end point). The settings on record: LNCaP prostate carcinoma cells, compound incubation 20-22 hours, 50% reduction of the AR signal; read-out: Androgen Receptor Down-regulation Assay (a) IC50/μM. The class given is cell-based. The protocol: The ability of compounds to reduce Androgen Receptor (AR) numbers was assessed in a cell based immuno-fluorescence assay using the LNCaP prostate epithelial cell line.
a) LNCaP Androgen Receptor Down-regulation Cell Assay
A 5 ml volume of Growth Medium was added to each flask (as above except that 5% (v/v) charcoal stripped FBS (HyClone Code no. SH30068.03) was included instead of 10% (v/v) FBS). Cells were syringed at least twice using a sterile 18G×1.5″ (1.2×40 mm) broad gauge needle and cell density was measured using a haemocytometer.
Test data reported herein was generated using two different compounds preparation and dosing methods. In method (1) a 10 mM compound stock solution in 100% (v/v) DMSO was serially diluted in 4-fold steps in 100% (v/v) DMSO using a Thermo Scientific Matrix SerialMate. The diluted compounds were then further diluted 1 in 30 in assay media using a Thermo Scientific Matrix PlateMate and a 10 μl aliquot of this dilution was dosed to cells manually using a multi-channel pipette. In method (2) starting with a 10 mM compound stock solution, the Labcyte Echo 550 was used to generate a compound concentration response set diluted in 30 μl of assay media. The Echo 550 is a liquid handler that uses acoustic technology to perform direct microplate-to-microplate transfers of DMSO compound solutions. The system can be programmed to transfer volumes as low as […] in multiple increments between microplates and in so doing generates a serial dilution of compound which is then back-filled to normalise the DMSO concentration across the dilution range. A 10 μl volume of diluted compound is then dosed to cells using a Thermo Scientific Matrix PlateMate.
Plates were incubated overnight at 37° C., 5% CO2. Wells were then dosed with compound prepared by one of the 2 methods above and further incubated for 20-22 hours at 37° C., 5% CO2. […] This fixative solution was removed and cells were washed with 250 μl of PBS/0.05% (v/v) Tween 20 (PBST) using an automated plate washer. This process was then repeated twice more.
Immunostaining was performed at room temperature. Cells were permeabilised by the addition of 35 μl of PBS containing 0.5% Tween 20 and incubated for 1 hour at room temperature. Permeabilisation solution was removed and cells were washed with 250 μl of PBST using an automated plate washer. This process was then repeated twice more. 35 μl of Blocking Solution (PBST containing 3% (w/v) Marvel dried skimmed milk (Nestle)) was added to each well and plates were incubated at room temperature for a minimum of 1 hour. […] Then this primary antibody solution was removed from the wells followed by 3×100 μl PBST washes using a plate washer. […] Henceforth, wherever possible, plates were protected from light exposure. The plates were incubated for 1 hour and then the secondary antibody solution was removed from the wells followed by 3×100 ul PBST washes using a plate washer. Then 50 μl of PBST was added to each well and plates were covered with a black plate seal and stored at 4° C. before being read. Plates were read within six hours of completing the immunostaining.
The Green Fluorescent AR-associated signal in each well was measured using an Acumen Explorer HTS Reader (TTP Labtech Ltd., Cambridge). […] The instrument is a laser-scanning fluorescence microplate cytometer which samples the well at regular intervals and uses threshold algorithms to identify all fluorescent intensities above the solution background without the need to generate and analyse an image. These fluorescent objects can be quantified and provide a measure of the AR levels in cells. Fluorescence dose response data obtained with each compound was exported into a suitable software package (such as Origin) to perform curve fitting analysis. Down-regulation of AR levels was expressed as an IC50 value.
With `Fc1ccc(N2CCN(c3ccc4nnc(C(F)(F)F)n4n3)CC2)c(F)c1` [Example 29, 6-[4-(2,4-difluorophenyl)piperazin-1-yl]-3-(trifluoromethyl)-[1,2,4]triazolo[4,3-b]pyridazine], the DC50 is 4.2 µM. In the case of `FC(F)(F)c1cnc(N2CCCN(c3ccc4nnc(C(F)(F)F)n4n3)CC2)c(Cl)c1` [Example 30, 6-[4-[3-chloro-5-(trifluoromethyl)pyridin-2-yl]-1,4-diazepan-1-yl]-3-(trifluoromethyl)-[1,2,4]triazolo[4,3-b]pyridazine], the DC50 was 0.38 µM. In the case of `COc1nccc(-c2c(-c3ccc(F)cc3)ncn2C2CCN(c3ccc4nnc(C(F)(F)F)n4n3)CC2)n1` [Example 31, 6-[4-[4-(4-fluorophenyl)-5-(2-methoxypyrimidin-4-yl)imidazol-1-yl]piperidin-1-yl]-3-(trifluoromethyl)-[1,2,4]triazolo[4,3-b]pyridazine] it was 2.1 µM.

Turning to `Cc1ccccc1N1CCN(c2ccc3nnc(C(F)(F)F)n3n2)CC1` [Example 32, 6-[4-(2-methylphenyl)piperazin-1-yl]-3-(trifluoromethyl)-[1,2,4]triazolo[4,3-b]pyridazine], the DC50 stood at 1.6 µM. For the compound `FC(F)(F)c1nnc2ccc(N3CCCN(Cc4ccccc4Cl)CC3)nn12` [Example 33, 6-[4-[(2-chlorophenyl)methyl]-1,4-diazepan-1-yl]-3-(trifluoromethyl)-[1,2,4]triazolo[4,3-b]pyridazine], the DC50 is 0.68 µM. For `CCCC(=O)N1CC2CN(c3ccc4nnc(C(F)(F)F)n4n3)CC2C1` (stereo not shown) [Example 34, 1-[2-[3-(trifluoromethyl)-[1,2,4]triazolo[4,3-b]pyridazin-6-yl]-1,3,3a,4,6,6a-hexahydropyrrolo[3,4-c]pyrrol-5-yl]butan-1-one], the DC50 amounted to 20 µM. Turning to `CC(C)(C)OC(=O)N1[C@@H]2CC[C@H]1CN(c1ccc3nnc(C(F)(F)F)n3n1)C2` [Example 35, tert-butyl (1S,5R)-3-[3-(trifluoromethyl)-[1,2,4]triazolo[4,3-b]pyridazin-6-yl]-3,8-diazabicyclo[3.2.1]octane-8-carboxylate], the DC50 was 3 µM. Consider `Cc1cccc(N2CCN(c3ccc4nnc(C(F)(F)F)n4n3)CC2)c1` [Example 36, 6-[4-(3-methylphenyl)piperazin-1-yl]-3-(trifluoromethyl)-[1,2,4]triazolo[4,3-b]pyridazine], for which the DC50 stood at 0.99 µM. Take `FC(F)(F)c1nnc2ccc(N3CCN(c4ccccc4Cl)CC3)nn12` [Example 37, 6-[4-(2-chlorophenyl)piperazin-1-yl]-3-(trifluoromethyl)-[1,2,4]triazolo[4,3-b]pyridazine]: the DC50 was 1.4 µM. For `O=C1OCc2ccccc2N1C1CCN(c2ccc3nnc(C(F)(F)F)n3n2)CC1` [Example 39, 1-[1-[3-(trifluoromethyl)-[1,2,4]triazolo[4,3-b]pyridazin-6-yl]piperidin-4-yl]-4H-3,1-benzoxazin-2-one], the DC50 is 5 µM. In the case of `O=C1CCc2ccccc2N1C1CCN(c2ccc3nnc(C(F)(F)F)n3n2)CC1` [Example 40, 1-[1-[3-(trifluoromethyl)-[1,2,4]triazolo[4,3-b]pyridazin-6-yl]piperidin-4-yl]-3,4-dihydroquinolin-2-one] it was 3.3 µM. As for `N#Cc1cccc(CN2CCN(c3ccc4nnc(C(F)(F)F)n4n3)CC2)c1` [Example 43, 3-[[4-[3-(trifluoromethyl)-[1,2,4]triazolo[4,3-b]pyridazin-6-yl]piperazin-1-yl]methyl]benzonitrile], the DC50 turned out to be 1.5 µM.

On to `Cc1ccc(CN2CCN(c3ccc4nnc(C(F)(F)F)n4n3)CC2)cc1` [Example 47, 6-[4-[(4-methylphenyl)methyl]piperazin-1-yl]-3-(trifluoromethyl)-[1,2,4]triazolo[4,3-b]pyridazine], for which the DC50 is 1.5 µM. As to `FC(F)(F)c1nnc2ccc(N3CCN(Cc4nc5ccccc5s4)CC3)nn12` [Example 48, 6-[4-(1,3-benzothiazol-2-ylmethyl)piperazin-1-yl]-3-(trifluoromethyl)-[1,2,4]triazolo[4,3-b]pyridazine], the DC50 worked out at 1.5 µM. Consider `FC(F)(F)c1nnc2ccc(N3CCN(Cc4nc5ccccc5o4)CC3)nn12` [Example 49, 6-[4-(1,3-benzoxazol-2-ylmethyl)piperazin-1-yl]-3-(trifluoromethyl)-[1,2,4]triazolo[4,3-b]pyridazine], for which the DC50 amounted to 3.2 µM.

With `FC(F)(F)c1nnc2ccc(N3CCN(Cc4ccnc5ccccc45)CC3)nn12` [Example 50, 4-[[4-[3-(trifluoromethyl)-[1,2,4]triazolo[4,3-b]pyridazin-6-yl]piperazin-1-yl]methyl]quinoline], the DC50 amounted to 1.4 µM.

Turning to `FC(F)(F)c1nnc2ccc(N3CCN(Cc4nccs4)CC3)nn12` [Example 51, 6-[4-(1,3-thiazol-2-ylmethyl)piperazin-1-yl]-3-(trifluoromethyl)-[1,2,4]triazolo[4,3-b]pyridazine], the DC50 worked out at 8.4 µM. Take `FC(F)(F)c1nnc2ccc(N3CCN(Cc4csnn4)CC3)nn12` [Example 53, 6-[4-(thiadiazol-4-ylmethyl)piperazin-1-yl]-3-(trifluoromethyl)-[1,2,4]triazolo[4,3-b]pyridazine]: the DC50 was found to be 7.9 µM. Consider `Cn1c(CN2CCN(c3ccc4nnc(C(F)(F)F)n4n3)CC2)nc2ccccc21` [Example 54, 6-[4-[(1-methylbenzimidazol-2-yl)methyl]piperazin-1-yl]-3-(trifluoromethyl)-[1,2,4]triazolo[4,3-b]pyridazine], for which the DC50 came out at 6.7 µM. On to `FC(F)(F)c1nnc2ccc(N3CCN(Cc4cnccn4)CC3)nn12` [Example 55, 6-[4-(pyrazin-2-ylmethyl)piperazin-1-yl]-3-(trifluoromethyl)-[1,2,4]triazolo[4,3-b]pyridazine], for which the DC50 is 8.8 µM.

For the compound `FC(F)(F)c1nnc2ccc(N3CCN(Cc4ccc5ccccc5n4)CC3)nn12` [Example 56, 2-[[4-[3-(trifluoromethyl)-[1,2,4]triazolo[4,3-b]pyridazin-6-yl]piperazin-1-yl]methyl]quinoline], the DC50 turned out to be 2.1 µM. The same measure for `CS(=O)(=O)c1ccccc1CN1CCN(c2ccc3nnc(C(F)(F)F)n3n2)CC1` [Example 57, 6-[4-[(2-methylsulfonylphenyl)methyl]piperazin-1-yl]-3-(trifluoromethyl)-[1,2,4]triazolo[4,3-b]pyridazine]: 4.3 µM.

Values taken from patent publication US8003649B2 (AstraZeneca AB, priority 2007, dated 2011).
